# Assays:
# U937 cells = experiment: U937 cell activity assay: TNFα/QVD-OPh-induced programmed cell necrosis (necroptosis); type: cell-based, human; settings: Homo sapiens, U-937, 24 h, QVD-OPh 25 μM + TNF-α 100 ng/mL, CellTiter Glo
# Protocol: 1.2 Instrument and Materials
# Envision plate reader (Perkin Elmer, Cat #2104-0010)
# 1.3 Formulation of Reagents • (1) 1×DPSB: To 100 mL of 10×DPBS was added 900 mL of deionized water. • (2) 1640 complete medium: To 89 mL of RPMI-1640 medium were added 10 mL of FBS and 1 mL of penicillin/streptomycin 2. Assay Steps • 1. U937 cells were centrifuged, and then the medium was discarded. The cells were resuspended in 1640 complete medium and counted. The cell concentration was adjusted to 5×10^5 cells/mL for use, and the cells were arranged according to compounds to be assayed. • 2. To the prepared resuspension of U937 cells were added QVD-OPh at a final concentration of 25 μM and TNF-α at a final concentration of 100 ng/mL, and then the mixture was mixed gently. • 3. To a 384-well plate was added 30 μL/well of U937 cells containing 25 μM of QVD-OPh and TNF-α at a final concentration of 100 ng/mL, and blank control wells without QVD-OPh and TNF-α were set up. • 4. To the dosing group […] added 10 μL of the assay compound at 4 times the preset concentration, and to the blank control well was added DMSO at the corresponding concentration. • 5. The 384-well plate was placed in a 37° C. and 5% CO2 cell incubator for 24 hours. • 6. After 24 hours, the 384-well plate was taken out and equilibrated at room temperature for 20 minutes. • 7. 40 μL of CTG was added to each well, and then the plate was shaken on a shaker in the dark for 2 minutes. • 8. The plate was incubated at room temperature in the dark for 10 minutes, and then read using an Envision plate reader.
# L929 cells = experiment: In vitro activity assay of mouse RIP1: L929 cell TNFα/QVD-OPh-induced necroptosis; type: cell-based; settings: TNF-α 50 ng/mL + Q-VD 50 μM, 24 h, CellTiter Glo
# Protocol: Assay Example 2: In Vitro Activity Assay of Mouse RIP1
# L929 (purchased from ATCC, Item No.: CCL-1)
# Instrument Microplate reader (Perkin Elmer, Envision) Formulation of Reagents L929 cell complete medium: EMEM+10% horse serum (volume ratio)+1% double antibiotics (volume ratio) Assay Step • 1. The cultured L929 cells were digested with trypsin, centrifuged, resuspended in complete culture medium, and then counted. The cell concentration was then diluted to 1×10^5/mL with complete culture medium. • 2. The cell suspension was added to a 96-well plate at 100 μL per well and incubated at 37° C. and 5% CO2 for 24 h. • 3. Different concentrations of assay compounds were added to each well, and dimethyl sulfoxide was added to the control group. The plate was incubated at 37° C. and 5% CO2 for 1 h. • 4. To each well were added TNF-α at a final concentration of 50 ng/mL and Q-VD at a final concentration of 50 μM, and the plate was incubated at 37° C. and 5% CO2 for 24 h. • 5. To each well was added 50 μL of CellTiter Glo […], and the plate was shaken in the dark for 10 min. • 6. The plate was read on the microplate reader.
# RIP1 = target: T1, RIP1 (Homo sapiens, UniProt Q13546); experiment: Kinase selectivity assay (Eurofins, 33P radiolabeled kinase activity): RIP1; type: biochemical; settings: WX009 1 μM, ATP 10 μM, read-out: Inhibition rate
# T1 construct: purchased Eurofins Pharma Discovery Service
# T1 sequence (Q13546 1-671): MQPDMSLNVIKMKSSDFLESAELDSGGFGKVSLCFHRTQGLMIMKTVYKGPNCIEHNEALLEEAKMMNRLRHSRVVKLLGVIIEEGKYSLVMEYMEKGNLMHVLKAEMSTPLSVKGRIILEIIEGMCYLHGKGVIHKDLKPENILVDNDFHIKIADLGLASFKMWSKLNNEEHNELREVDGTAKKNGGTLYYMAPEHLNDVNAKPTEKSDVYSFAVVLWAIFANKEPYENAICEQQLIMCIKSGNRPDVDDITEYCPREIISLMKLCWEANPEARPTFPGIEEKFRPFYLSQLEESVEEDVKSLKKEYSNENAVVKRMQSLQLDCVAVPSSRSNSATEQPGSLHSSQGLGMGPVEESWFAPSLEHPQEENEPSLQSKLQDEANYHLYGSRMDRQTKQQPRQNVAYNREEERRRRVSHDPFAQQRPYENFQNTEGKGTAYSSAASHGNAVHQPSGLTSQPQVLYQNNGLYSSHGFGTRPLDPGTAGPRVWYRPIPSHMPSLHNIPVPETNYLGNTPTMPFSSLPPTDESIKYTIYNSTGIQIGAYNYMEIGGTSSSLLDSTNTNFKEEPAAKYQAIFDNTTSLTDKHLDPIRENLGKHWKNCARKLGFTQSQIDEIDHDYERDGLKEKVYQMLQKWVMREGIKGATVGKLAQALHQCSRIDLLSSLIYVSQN
# Protocol: The purpose of this assay was to detect the in vitro inhibitory activity of WX009 on a variety of kinases. The kinases used in this assay included 413 kinases, and the activity detection method was provided by Eurofins Pharma Discovery Service A method of detecting ^33P radiolabeled kinase activity was used for the assay. The concentration of WX009 was 1 μM, and the concentration of ATP was 10 μM.
smiles,measurement,setting,value
CN1C(=S)[C@@H](NC(=O)c2ncn(Cc3ccccc3)n2)COc2cccnc21 [WX009],IC50,U937 cells,1.4 nM
same,IC50,L929 cells,0.103 µM
same,inhibition at 1 µM,RIP1,> 80%

# Reference: patent US12351587B2, “Bicyclic compound as RIP-1 kinase inhibitor and application thereof” (MEDSHINE DISCOVERY INC., priority 2019, dated 2025)
